Experimental data as given in PMC7993833, “EDP-938, a novel nucleoprotein inhibitor of respiratory syncytial virus, demonstrates potent antiviral activities in vitro and in a non-human primate model” (PLoS Pathogens, 2021).
Read-outs that look alike come from different tables or passages of the source.

Tests used:
[1] = tested on: recombinant RSV A2-line19F, N protein mutants
[2] = tested on: A549 cells; experiment: Cytotoxicity (ATPlite) in A549 cells; format: cell-based, human; conditions: at up to 50 μM, 3 days
Description: HEp-2, A549, and CHO cells were seeded at 3,000 cpw in their respective growth medium. CHO growth medium used was RPMI medium 1640 with 10% FBS, 1% P/S, 1% GlutaMAX. HEK-293 cells seeded at 10,000 cpw in DMEM growth medium. Undifferentiated HBECs were seeded in collagen-coated 96-well plates at 7,500 cpw in appropriate growth medium. Compound added and incubated for 3 days (4 days for HBECs) as described above. Plates read with ATPlite and CC50 calculated as EC50s as described above. SI = CC50/EC50 within a cell line.

O=C1Nc2ccccc2C(c2ccccc2)=N[C@@H]1Nc1nnc(-c2ncc(C(F)(F)F)cc2N2CCOCC2)o1 [EDP-938]
EC50 Fold Change vs. WT ([1]; recombinant RSV N K107N): 1.2 fold
EC50 Fold Change vs. WT ([1]; recombinant RSV N K136R): 2.7 fold
EC50 Fold Change vs. WT ([1]; recombinant RSV N L139I): 7.2 fold
EC50 Fold Change vs. WT ([1]; recombinant RSV N M109I): 1.6 fold
EC50 Fold Change vs. WT ([1]; recombinant RSV N M109K): 26.9 fold
EC50 Fold Change vs. WT ([1]; recombinant RSV N M109T): 5.4 fold
EC50 Fold Change vs. WT ([1]; recombinant RSV N N105D): 1.3 fold
EC50 Fold Change vs. WT ([1]; recombinant RSV N S134T): 2.2 fold
EC50 Fold Change vs. WT ([1]; recombinant RSV N V90A): 1.0 fold
EC50 Fold Change vs. WT ([1]; recombinant RSV Wild-type (WT)): 1.0 fold
cytotoxicity [2]: no significant cytotoxicity
